IC50, EC50 and Ki data for 17 molecules are collected here from ChEMBL document CHEMBL1129330, “Synthesis and pharmacological characterization of all sixteen stereoisomers of 2-(2'-carboxy-3'-phenylcyclopropyl)glycine. Focus on (2S,1'S,2'S,3'R)-2-(2'-carboxy-3'-phenylcyclopropyl)glycine, a novel and selective group II metabotropic glutamate receptors antagonist” (J Med Chem, 1996).

Assay [1] in a line: Inhibitory concentration towards calcium/chloride-dependent glutamate transport into synaptosomes. It is filed as functional, subcellular, Rattus norvegicus, Brain.
Assay [2] addresses T1, Metabotropic glutamate receptor 2 (Homo sapiens, UniProt Q14416). The assay can be described thus: Effective concentration forskolin-stimulated cAMP formation in BHK cells expressing mGluR2 receptor. Type of assay: functional, cell-based.
The target of assay [3] is Glutamate receptor ionotropic, kainate. Briefly: Binding affinity towards Ionotropic glutamate receptor kainate. It is filed as protein-complex assay.
For assay [4], the target named is Glutamate receptor ionotropic, AMPA (Rattus norvegicus, UniProt P19490+P19491+P19492+P19493). Briefly: Binding affinity towards Ionotropic glutamate receptor AMPA. It is filed as protein-complex assay.
Assay [5] addresses T1, Metabotropic glutamate receptor 2. The assay can be described thus: Concentration required for the half-maximal inhibition of cAMP […] in BHK cells expressing mGluR2. Type of assay: functional, cell-based.
Assay [6] can be described thus: Inhibitory concentration towards the sodium dependent glutamate transport into synaptosomes. Type of assay: functional, subcellular, Brain.
The target in another assay is Glutamate NMDA receptor. The assay can be described thus: Binding affinity towards Ionotropic glutamate receptor NMDA. Type of assay: protein-complex assay.
Assay [7] has as its target Metabotropic glutamate receptor 1 (Homo sapiens, UniProt Q13255). The assay can be described thus: Binding affinity towards mGluR1a was determined.
Assay [8] has as its target T1, Metabotropic glutamate receptor 2. The assay can be described thus: Antagonistic activity against mGluR2 was determined. Type of assay: functional.
Assay [9] shares this target. The assay can be described thus: Effective concentration of compound against forskolin-stimulated cAMP formation in BHK cells expressing mGluR2 receptor. It is filed as functional, cell-based. (In general: cAMP levels reflect the balance of adenylyl cyclase and phosphodiesterase activity.)
Assay [10] shares this target. The assay can be described thus: Concentration required for the half-maximal inhibition of cAMP formation in BHK cells expressing mGluR2. It is filed as functional, cell-based.
Assay [11] shares this target. Briefly: Concentration required for the half-maximal inhibition of cAMP formation in BHK cells expressing mGluR2. It is filed as functional, cell-based.

SMILES strings stand for the structures. Bounds are passed on as bounds.

T1 sequence (Q14416 whole entry): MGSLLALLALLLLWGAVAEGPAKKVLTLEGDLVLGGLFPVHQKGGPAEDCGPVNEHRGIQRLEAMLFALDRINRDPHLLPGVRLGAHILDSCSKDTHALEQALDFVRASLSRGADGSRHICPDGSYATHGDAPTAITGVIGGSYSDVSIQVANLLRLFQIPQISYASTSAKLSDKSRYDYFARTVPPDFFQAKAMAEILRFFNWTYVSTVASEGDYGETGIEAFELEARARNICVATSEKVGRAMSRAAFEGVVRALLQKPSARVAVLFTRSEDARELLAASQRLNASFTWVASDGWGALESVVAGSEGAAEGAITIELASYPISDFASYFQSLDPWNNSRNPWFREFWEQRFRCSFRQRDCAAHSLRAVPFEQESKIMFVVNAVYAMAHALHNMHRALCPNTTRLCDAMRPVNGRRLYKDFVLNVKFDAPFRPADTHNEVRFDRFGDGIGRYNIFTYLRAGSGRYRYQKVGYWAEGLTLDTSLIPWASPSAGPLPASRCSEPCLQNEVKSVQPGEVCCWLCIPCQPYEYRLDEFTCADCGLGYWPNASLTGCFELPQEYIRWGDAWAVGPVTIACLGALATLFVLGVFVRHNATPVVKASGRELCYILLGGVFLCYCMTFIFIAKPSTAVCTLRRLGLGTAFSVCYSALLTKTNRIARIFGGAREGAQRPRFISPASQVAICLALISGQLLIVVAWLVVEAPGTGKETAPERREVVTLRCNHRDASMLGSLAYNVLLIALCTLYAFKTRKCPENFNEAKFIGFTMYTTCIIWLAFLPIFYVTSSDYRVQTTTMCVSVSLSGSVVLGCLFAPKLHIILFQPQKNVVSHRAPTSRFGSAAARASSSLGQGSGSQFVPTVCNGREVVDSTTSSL
Chain of Metabotropic glutamate receptor 1 (Q13255 whole entry): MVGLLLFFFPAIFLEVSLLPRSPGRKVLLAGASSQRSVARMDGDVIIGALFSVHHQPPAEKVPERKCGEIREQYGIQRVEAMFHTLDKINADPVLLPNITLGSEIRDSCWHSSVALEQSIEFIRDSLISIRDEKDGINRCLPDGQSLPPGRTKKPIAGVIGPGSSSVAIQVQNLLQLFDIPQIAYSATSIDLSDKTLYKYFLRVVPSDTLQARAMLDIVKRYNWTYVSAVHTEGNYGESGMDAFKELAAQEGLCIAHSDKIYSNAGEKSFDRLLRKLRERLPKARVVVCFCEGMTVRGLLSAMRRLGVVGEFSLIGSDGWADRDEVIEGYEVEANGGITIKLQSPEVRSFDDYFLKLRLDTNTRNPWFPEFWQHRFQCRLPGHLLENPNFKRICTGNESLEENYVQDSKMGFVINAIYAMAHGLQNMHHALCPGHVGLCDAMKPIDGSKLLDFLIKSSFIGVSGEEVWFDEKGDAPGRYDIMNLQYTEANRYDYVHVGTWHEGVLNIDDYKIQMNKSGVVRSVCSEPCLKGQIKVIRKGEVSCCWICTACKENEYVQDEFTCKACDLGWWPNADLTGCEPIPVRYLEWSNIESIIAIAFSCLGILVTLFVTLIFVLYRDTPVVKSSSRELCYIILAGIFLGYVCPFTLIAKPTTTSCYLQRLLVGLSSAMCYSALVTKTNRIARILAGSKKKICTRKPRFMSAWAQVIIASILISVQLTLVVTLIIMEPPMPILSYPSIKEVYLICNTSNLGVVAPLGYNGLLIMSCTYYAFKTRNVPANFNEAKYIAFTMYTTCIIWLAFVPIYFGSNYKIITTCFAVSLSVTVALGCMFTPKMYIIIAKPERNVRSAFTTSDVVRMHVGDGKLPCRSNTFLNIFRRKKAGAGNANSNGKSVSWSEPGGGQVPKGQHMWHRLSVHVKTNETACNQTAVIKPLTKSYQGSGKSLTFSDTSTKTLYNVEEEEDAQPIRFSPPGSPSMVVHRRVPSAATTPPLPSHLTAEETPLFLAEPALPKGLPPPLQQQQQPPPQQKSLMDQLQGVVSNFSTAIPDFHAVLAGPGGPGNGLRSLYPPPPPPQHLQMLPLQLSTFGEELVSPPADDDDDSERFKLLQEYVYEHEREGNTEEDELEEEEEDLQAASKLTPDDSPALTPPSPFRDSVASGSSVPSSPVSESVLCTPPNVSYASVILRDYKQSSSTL

On to `N[C@@H](C(=O)O)[C@@H]1[C@H](C(=O)O)[C@H]1c1ccccc1` (stereo in doubt; 47), for which the IC50 (commonly the concentration that inhibits the measured activity by half) in assay [1] was 185 µM; in assay [5] (bhk), above 300 µM. Moreover, the EC50 (in general, the concentration needed to bring the measured effect to its halfway point) in assay [2] (bhk) is above 300 µM. Further, the values for the Ki in assay [3] and in [4] were 221 µM and 285 µM, respectively.
In the case of `N[C@H](C(=O)O)[C@@H]1[C@@H](C(=O)O)[C@H]1c1ccccc1`, the IC50 in assay [1] is 7 µM; in assay [6], above 300 µM; in assay [5], above 300 µM. Besides, the EC50 in [2] was above 300 µM. Further, the Ki – broadly, the dissociation constant of the complex between target and ligand, obtained from inhibition or displacement – in assay [3] was 126 µM; on Glutamate NMDA receptor it was 192 µM; in assay [4] it was above 220 µM.
Consider `N[C@@H](C(=O)O)[C@H]1[C@@H](C(=O)O)[C@H]1c1ccccc1`, for which the concentration for half-maximal inhibition (IC50) in assay [1] is 32 µM; in [6] it was above 300 µM; in [5], above 300 µM. The molecule also showed a 50% effective concentration (EC50) in assay [2] above 300 µM. Besides, the inhibitory constant (Ki) is 117 µM in assay [3], above 200 µM at Glutamate NMDA receptor and above 220 µM in assay [4].
Consider `N[C@H](C(=O)O)[C@H]1[C@H](C(=O)O)[C@@H]1c1ccccc1`, for which the 50% inhibitory concentration (IC50) in assay [1] was 85 µM; in assay [6] it was above 300 µM; in assay [5], above 300 µM. Also, the EC50 in assay [2] was above 300 µM. In addition, the inhibition constant Ki in assay [3] was above 190 µM; on Glutamate NMDA receptor, 25 µM; in [4], above 220 µM.
In the case of `N[C@@H](C(=O)O)[C@H]1[C@H](C(=O)O)[C@@H]1c1ccccc1`, the IC50 in [1] was 23 µM; in assay [6], above 300 µM; in assay [5], above 300 µM. The EC50 in assay [2] was above 300 µM. Further, the Ki in assay [3] is above 190 µM; on Glutamate NMDA receptor it was above 200 µM; in assay [4], above 300 µM.
Regarding `N[C@H](C(=O)O)[C@H]1[C@@H](C(=O)O)[C@H]1c1ccccc1`, the half-maximal inhibitory concentration (IC50) in [1] is 233 µM; in [6], above 300 µM; in assay [5], above 300 µM. Moreover, the concentration giving a half-maximal response (EC50) in assay [2] was above 300 µM. Further, the values for the Ki (in assay [3]; on Glutamate NMDA receptor; in [4]) were above 190 µM, above 200 µM and above 220 µM, respectively.
Consider `N[C@@H](C(=O)O)[C@@H]1[C@H](C(=O)O)[C@H]1c1ccccc1` (stereo in doubt; 44), for which the IC50 in assay [1], in assay [6] and in assay [5] was above 300 µM in each case. Besides, the concentration for a half-maximal effect (EC50) in assay [2] was above 300 µM. Also, the Ki in assay [3] was above 190 µM; at Glutamate NMDA receptor, above 200 µM; in assay [4], above 220 µM.
On to `N[C@H](C(=O)O)[C@@H]1[C@@H](C(=O)O)[C@@H]1c1ccccc1`, for which the figures for the half-maximal inhibitory concentration (IC50) in assay [1], in [6] and in assay [5] were above 300 µM, above 300 µM and 8 µM, respectively. The values for the inhibition constant (Ki) (in assay [3]; on Glutamate NMDA receptor; in assay [4]) were above 190 µM, above 200 µM and above 220 µM, respectively.
As for `N[C@H](C(=O)O)[C@@H]1[C@H](C(=O)O)[C@@H]1c1ccccc1`, the half-maximal inhibitory concentration (IC50) was 270 µM in [1], above 300 µM in assay [6] and above 300 µM in assay [5]. In addition, the EC50 in assay [2] is above 300 µM. Also, the Ki in [3] is 155 µM; at Glutamate NMDA receptor, above 200 µM; in assay [4] it was above 220 µM.
`N[C@@H](C(=O)O)[C@@H]1[C@@H](C(=O)O)[C@H]1c1ccccc1`: the figures for the half-inhibitory concentration (IC50) in assay [1], in assay [6] and in assay [5] were 138 µM, above 300 µM and above 300 µM, respectively. The molecule also came in with a concentration for a half-maximal effect (EC50) in assay [2] above 300 µM. Further, the inhibitory constant (Ki) is above 190 µM in assay [3], 29 µM on Glutamate NMDA receptor and above 220 µM in assay [4].
For `N[C@@H](C(=O)O)[C@@H]1[C@H](C(=O)O)[C@@H]1c1ccccc1`, the IC50 is 143 µM in assay [1], above 300 µM in assay [6] and above 300 µM in [5]. The molecule also showed a concentration giving a half-maximal response (EC50) in assay [2] above 300 µM. In addition, the inhibitory constant (Ki) is 122 µM in assay [3], above 200 µM on Glutamate NMDA receptor and 251 µM in assay [4].
For `N[C@H](C(=O)O)[C@H]1[C@@H](C(=O)O)[C@@H]1c1ccccc1`, the IC50 is 213 µM in assay [1], above 300 µM in assay [6] and above 300 µM in [5]. The molecule also gave an EC50 in assay [2] above 300 µM. Moreover, the Ki in [3] was 144 µM; on Glutamate NMDA receptor it was above 200 µM; in [4], 141 µM.
In turn, `CC(N)(C(=O)O)c1ccc(C(=O)O)cc1` (stereo not given) displayed a Ki in assay [7] of 50 µM. The molecule further had an IC50 in assay [8] of 50 µM.
As for `N[C@@H](C(=O)O)[C@H]1[C@@H](C(=O)O)[C@@H]1c1ccccc1`, the 50% inhibitory concentration (IC50) in assay [1] is 64 µM; in assay [6] it was above 300 µM; in assay [5] it was above 300 µM. The EC50 in [2] was above 300 µM. For the same molecule, the inhibitory constant (Ki) turned out to be 155 µM in assay [3], 123 µM at Glutamate NMDA receptor and 160 µM in assay [4].
Turning to `N[C@@H](C(=O)O)[C@H]1[C@H](C(=O)O)[C@H]1c1ccccc1`, the IC50 in assay [1] and in assay [6] was above 300 µM each time. The same molecule came in with an EC50 in [2] of 122 µM. Further, the inhibition constant (Ki) was 15 µM in assay [3], 129 µM on Glutamate NMDA receptor and 125 µM in assay [4].
`N[C@@H](C(=O)O)[C@@H]1[C@@H](C(=O)O)[C@@H]1c1ccccc1`: the concentration for half-maximal inhibition (IC50) in assay [1], in assay [6] and in [10] was above 300 µM throughout. In assay [9], this molecule gave an EC50 above 300 µM. Besides, the Ki is above 190 µM in [3], 193 µM at Glutamate NMDA receptor and 212 µM in assay [4].
Turning to `N[C@H](C(=O)O)[C@H]1[C@H](C(=O)O)[C@H]1c1ccccc1`, the concentration for half-maximal inhibition (IC50) in assay [1] was 41 µM; in assay [11] it was above 300 µM; in [6], above 300 µM. Moreover, the EC50 in assay [2] is above 300 µM. Moreover, the figures for the Ki (in [3]; at Glutamate NMDA receptor; in assay [4]) were 25 µM, 107 µM and 124 µM, respectively.
